Read-outs that look alike come from different tables or passages of the source.
Experiments:
[1] = Comparison of D- and L-amino acids for forming hydrogels with PVA; format: physicochemical; set-up: key: {square root} = Gel formation when amino acid was dissolved in water; + = Gel formation when amino acid was dissolved in 1 M NaHCO3; − = No gel formation regardless of solvent for amino acid; *= HCl derivative of amino acid; details: 1 ml of 8% PVA; for Gel formation, D: D-amino acid; for Gel formation, L: L-amino acid
Method: In these experiments, the ability of D-amino acids to gel PVA was compared directly to the gelling observed using L-amino acids. The concentrations of amino acids used were the same for both the L- and D-forms. All D- and L-amino acids were obtained from Aldrich. Typically, 100 mg of amino acid was dissolved in the minimum amount of water or 1M NaHCO3 (200-600 microliter) necessary to dissolve it. […] For each amino acid/PVA combination, 1 ml of 8% PVA was used (80 mg PVA) and the amount of amino acid was varied. 100 mg of each of amino acids was added unless listed below, with the following exceptions: L-Gln 20 mg; D-Ile 50 mg; L-Phe 20 mg and 40 mg; L-Pro 50 mg and 100 mg; L-Ser 30 mg and 100 mg; L-Thr 30 mg; D-Trp 10 mg and 30 mg; L-Trp 8 mg; L-Tyr 10 mg; D-Tyr 10 mg; L-Val 30 mg.

[2] = for amount necessary to cause precipitation of 1 ml 8% PVA: 1.8 mmol of available OH groups
Method: Succinic acid, ethylene diamine, and glycine were each dissolved in water at a typical ratio of 100 mg in 1 ml water.
Aliquots of 100 microliter of each solution were added to PVA to reach final concentrations of either ˜0.5 mmol (low concentration) or ˜1 mmol (high concentration) per 1 ml 8% PVA solution (1.8 mmol of available OH groups in PVA).

| SMILES | Gel formation, D [1] | Gel formation, L [1] | also measured |
| --- | --- | --- | --- |
| N[C@H](Cc1c[nH]c2ccccc12)C(=O)O [D-Trp] | + |  |  |
| N[C@@H](CCC(=O)O)C(=O)O [L-Glu] |  | − |  |
| O=C(O)[C@@H]1CCCN1 [L-Pro] |  | {square root} |  |
| NC(=O)CC[C@H](N)C(=O)O [L-Gln] |  | + |  |
| C[C@@H](O)[C@H](N)C(=O)O [L-Thr] |  | + |  |
| N[C@@H](CC(=O)O)C(=O)O [L-Asp] |  | − |  |
| O=C(O)CCC(=O)O [Succinic Acid, succinic acid] |  |  | dissolution of gel in water or in 1M HCl ([2]; gel formed at pH 7.0, higher concentration): did not dissolve; dissolution of gel in water or in 1M HCl ([2]; gel formed at pH 9.7, higher concentration): did not dissolve; Gel formation ([2]; pH 2.1): −; gelling over time ([2]; pH 2.1): No additional gelling; initial gelling ([2]; pH 2.1): very slight gelling; Gel formation ([2]; pH 4): −; Gel formation ([2]; pH 7): +++; gelling at higher concentration ([2]; pH 7.0): PVA precipitates out immediately; gelling over time ([2]; pH 7.0): A little more gelling; initial gelling ([2]; pH 7.0, small amounts added): some initial gelling; amount necessary to cause precipitation of 1 ml 8% PVA ([2]; pH 7): 0.85 mmol; gelling at higher concentration ([2]; pH 9.7): PVA precipitates out immediately; gelling over time ([2]; pH 9.7): Additional gelling; initial gelling ([2]; pH 9.7, small amounts added): some initial gelling; Gel formation ([2]; pH 10): +++; amount necessary to cause precipitation of 1 ml 8% PVA ([2]; pH 10): 0.73 mmol |
| CSCC[C@H](N)C(=O)O [L-Met] |  | − |  |
| NC(=O)C[C@@H](N)C(=O)O [D-Asn] | − |  |  |
| NCCCC[C@H](N)C(=O)O [L-Lys] |  | {square root} |  |
| N=C(N)NCCC[C@H](N)C(=O)O [L-Arg] |  | {square root} |  |
| CSCC[C@@H](N)C(=O)O [D-Met] | + |  |  |
| CC[C@@H](C)[C@@H](N)C(=O)O [D-Ile] | + |  |  |
| N[C@H](Cc1ccc(O)cc1)C(=O)O [D-Tyr] | + |  |  |
| N[C@@H](CS)C(=O)O [L-Cys] |  | + |  |
| C[C@H](N)C(=O)O [L-Ala] |  | + |  |
| C[C@H](O)[C@@H](N)C(=O)O [D-Thr] | + |  |  |
| NC(=O)C[C@H](N)C(=O)O [L-Asn] |  | + |  |
| N[C@@H](Cc1c[nH]cn1)C(=O)O [L-His] |  | {square root} |  |
| N[C@H](CCC(=O)O)C(=O)O [D-Glu] | − |  |  |
| CC(C)[C@H](N)C(=O)O [L-Val] |  | + |  |

| SMILES | Gel formation, D [1] | Gel formation, L [1] | also measured |
| --- | --- | --- | --- |
| CC(C)C[C@@H](N)C(=O)O [D-Leu] | + |  |  |
| N[C@@H](CO)C(=O)O [L-Ser] |  | + |  |
| N[C@H](CC(=O)O)C(=O)O [D-Asp] | − |  |  |
| N[C@@H](Cc1ccc(O)cc1)C(=O)O [L-Tyr] |  | + |  |
| Cl.NC(N)=NCCC[C@@H](N)C(=O)O [D-Arg] | −* |  |  |
| CC(C)[C@@H](N)C(=O)O [D-Val] | + |  |  |
| C[C@@H](N)C(=O)O [D-Ala] | − |  |  |
| N[C@H](CO)C(=O)O [D-Ser] | {square root} |  |  |
| CCCC[C@@H](N)C(=O)O [D-Nle] | + |  |  |
| NCCCC[C@@H](N)C(=O)O [D-Lys] | {square root} |  |  |
| NCCN [Ethylene Diamine, ethylene diamine] |  |  | Gel formation ([2]; pH 4): −; gelling over time ([2]; pH 4.4): no gelling over time; initial gelling ([2]; pH 4.4): no immediate gelling; Gel formation ([2]; pH 7): −; gelling over time ([2]; pH 7.2): no additional gelling; initial gelling ([2]; pH 7.2): little immediate gelling; Gel formation ([2]; pH 10): ++; initial gelling ([2]; pH 10.0): immediate gelling; gelling over time ([2]; pH 10.0, first 24 hours): additional gelling; initial gelling ([2]; pH 12.7): immediate gelling; gelling over time ([2]; pH 12.7, first 24 hours): additional gelling; Gel formation ([2]; pH 13.1): +++ |
| N[C@H](Cc1c[nH]cn1)C(=O)O [D-His] | − |  |  |
| N[C@@H](Cc1ccccc1)C(=O)O [L-Phe] |  | + |  |
| NCC(=O)O [Glycine, glycine] |  | {square root} | dissolution of gel in water ([2]; gel formed at pH 7, cured for 1 hour in its solution before placing in water): did not dissolve; Gel formation ([2]; pH 4): −; initial gelling ([2]; pH 4): little gel formation; gelling over time ([2]; pH 4, within the first 24 hours): additional gel formation; Gel formation ([2]; pH 7): +++; gelling at higher concentration ([2]; pH 7): immediate gel formation; gelling over time ([2]; pH 7): More gelling; initial gelling ([2]; pH 7): substantial gelling; amount necessary to cause precipitation of 1 ml 8% PVA ([2]; pH 7): 2.6 mmol; initial gelling ([2]; pH 9.9): much gelling; gelling over time ([2]; pH 9.9, within 24 hours): Considerable additional gelling; Gel formation ([2]; pH 10): ++ |
| N[C@H](Cc1ccccc1)C(=O)O [D-Phe] | + |  |  |
| O=C(O)[C@H]1CCCN1 [D-Pro] | {square root} |  |  |
| N[C@@H](Cc1c[nH]c2ccccc12)C(=O)O [L-Trp] |  | {square root} |  |
| CC[C@H](C)[C@H](N)C(=O)O [L-Ile] |  | − |  |
| O=C(O)[C@@H]1C[C@@H](O)CN1 [L-Hyp] |  | − |  |
| NC(=O)CC[C@@H](N)C(=O)O [D-Gln] | − |  |  |
| CC(C)C[C@H](N)C(=O)O [L-Leu] |  | − |  |

Reference: patent US20050276857A1, “Hydrogels formed by non-covalent linkages” (University of Washington, priority 2002, published 2005)
